Calls of active or inactive are those of the source. The rule behind the calls is not given here.
What was measured:
[1] = molecular target: MAP kinase-interacting serine/threonine-protein kinase 1 (Homo sapiens, UniProt Q9BUB5, T385D); assay: Inhibition of human MNK1 T385D mutant using MBP as substrate in presence of [gamma33P]-ATP by HotSpot assay
[2] = molecular target: Tyrosine-protein kinase BTK (Homo sapiens, UniProt Q06187); assay: Inhibition of human BTK using poly (Glu, Tyr)4:1 as substrate in presence of [gamma33P]-ATP by HotSpot assay
BaF3 [3] = conditions: dose 50 mg/kg; route po; time 8 day
[4] = molecular target: Ephrin type-A receptor 8 (Homo sapiens) (UniProt P29322); assay: Inhibition of human EPHA8 at 1 uM using poly (Glu, Tyr)4:1 as substrate in presence of [gamma33P]-ATP by HotSpot assay relative to control
[5] = molecular target: Maternal embryonic leucine zipper kinase (Homo sapiens, UniProt Q14680); assay: Inhibition of human MELK using KKLNRTLSFAEPG as substrate in presence of [gamma33P]-ATP by HotSpot assay
[6] = molecular target: SRSF protein kinase 1 (Homo sapiens) (UniProt Q96SB4); assay: Inhibition of human SRPK1 at 1 uM using GRSRSRSRSR as substrate in presence of [gamma33P]-ATP by HotSpot assay relative to control
[7] = molecular target: Ephrin type-A receptor 4 (Homo sapiens) (UniProt P54764); assay: Inhibition of human EPHA4 at 1 uM using poly (Glu, Tyr)4:1 as substrate in presence of [gamma33P]-ATP by HotSpot assay relative to control
[8] = tested on: EML4-ALK (Homo sapiens), Q9UM73+Q9HC35 [S1206Y]; conditions: BaF3, dose 500.0 nmol/L, time 3-5 weeks
[9] = molecular target: G protein-coupled receptor kinase 5 (Homo sapiens) (UniProt P34947); assay: Inhibition of human GRK5 at 1 uM using casein as substrate in presence of [gamma33P]-ATP by HotSpot assay relative to control
NCI-H3122 = assay: Inhibition of ERK phosphorylation in ALK-positive human NCI-H3122 cells at 1 to 1000 nM incubated for 1 hrs by immunoblot analysis; assay type: cell-based; conditions: dose 1-1000 nM
[10] = molecular target: Hepatocyte growth factor receptor (Homo sapiens, UniProt P08581); assay: Inhibition of human MET at 1 uM using poly (Glu, Tyr)4:1 as substrate in presence of [gamma33P]-ATP by HotSpot assay relative to control
[11] = molecular target: T1, Receptor tyrosine-protein kinase erbB-2 (Homo sapiens, UniProt P04626); assay: Inhibition of human ERBB2 using poly (Glu, Tyr)4:1 as substrate in presence of [gamma33P]-ATP by HotSpot assay
[12] = molecular target: T1, Receptor tyrosine-protein kinase erbB-2; assay: Inhibition of human ERBB2 at 1 uM using poly (Glu, Tyr)4:1 as substrate in presence of [gamma33P]-ATP by HotSpot assay relative to control
[13] = tested on: EML4-ALK (Homo sapiens), Q9UM73+Q9HC35 [S1206A]; conditions: BaF3, dose 200.0 nmol/L, time 3-5 weeks
BaF3 [14] = assay: In vivo inhibition of ALK signaling in mouse implanted with mouse BaF3 cells expressing EML4-ALK G1202R mutant assessed as inhibition of ALK phosphorylation at 25 mg/kg, po administered as single dose and measured at 6 to 24 hrs by ELISA; assay type: functional, organism-based; conditions: time 6-24 hrs
[15] = molecular target: CDK7/Cyclin H/MNAT1 (Homo sapiens) (UniProt P51946+P50613+P51948); assay: Inhibition of human CDK7/CyclinH/MAT1 at 1 uM using MBP as substrate in presence of [gamma33P]-ATP by HotSpot assay relative to control; assay type: protein-complex assay
KARPAS-299 [16] = assay: Inhibition of ERK phosphorylation in ALK-positive human KARPAS-299 cells at 1 to 1000 nM incubated for 1 hrs by immunoblot analysis; assay type: cell-based; conditions: dose 1-1000 nM
[17] = molecular target: Homeodomain-interacting protein kinase 3 (Homo sapiens) (UniProt Q9H422); assay: Inhibition of human HIPK3 at 1 uM using MBP as substrate in presence of [gamma33P]-ATP by HotSpot assay relative to control
[18] = tested on: EML4-ALK (Homo sapiens), Q9UM73+Q9HC35 [UNDEFINED MUTATION]; conditions: BaF3, time 3-5 weeks
[19] = molecular target: Myosin light chain kinase 2, skeletal/cardiac muscle (Homo sapiens) (UniProt Q9H1R3); assay: Inhibition of human MYLK2 at 1 uM using KKLNRTLSFAEPG as substrate in presence of [gamma33P]-ATP by HotSpot assay relative to control
Mus musculus = assay: In vivo inhibition of ALK phosphorylation in SCID Beige mouse xenografted with ALK positive human KARPAS-299 cells at 10 to 50 mg/kg, po administered once daily for 4 days and measured 24 hrs after last dose by ELISA; assay type: functional, organism-based; conditions: dose 10-50 mg/kg, time 5.0 day
[20] = molecular target: Serine/threonine-protein kinase STK11 (Homo sapiens) (UniProt Q15831); assay: Inhibition of human STK11 at 1 uM using LSNLYHQGKFLQTFCGSPLYRRR as substrate in presence of [gamma33P]-ATP by HotSpot assay relative to control
[21] = tested on: EML4-ALK (Homo sapiens), Q9UM73+Q9HC35 [G1202R]; conditions: BaF3, dose 500.0 nmol/L, time 3-5 weeks
[22] = molecular target: Serine/threonine-protein kinase Chk2 (Homo sapiens, UniProt O96017); assay: Inhibition of human CHEK2 using KKKVSRSGLYRSPSMPENLNRPR as substrate in presence of [gamma33P]-ATP by HotSpot assay
[23] = molecular target: Serine/threonine-protein kinase TAO3 (Homo sapiens) (UniProt Q9H2K8); assay: Inhibition of human TAOK3 at 1 uM using MBP as substrate in presence of [gamma33P]-ATP by HotSpot assay relative to control
[24] = tested on: EML4-ALK (Homo sapiens), Q9UM73+Q9HC35 [L1196M]; conditions: BaF3, dose 500.0 nmol/L, time 3-5 weeks
KARPAS-299 [25] = assay: Antitumor activity against ALK positive human KARPAS-299 cells xenografted in SCID beige mouse assessed as tumor regression at 50 mg/kg, po administered once daily for 14 days and measured after 13 days relative to control; assay type: functional; conditions: time 27 day
[26] = tested on: EML4-ALK (Homo sapiens), Q9UM73+Q9HC35 [F1174V]; conditions: BaF3, dose 200.0 nmol/L, time 3-5 weeks
[27] = molecular target: Ephrin type-A receptor 3 (Homo sapiens) (UniProt P29320); assay: Inhibition of human EPHA3 at 1 uM using poly (Glu, Tyr)4:1 as substrate in presence of [gamma33P]-ATP by HotSpot assay relative to control
Homo sapiens = species on record: Homo sapiens; assay: Inhibition of human CDK2/CyclinA at 1 uM using RB protein as substrate in presence of [gamma33P]-ATP by HotSpot assay relative to control

T1 sequence (P04626 whole entry): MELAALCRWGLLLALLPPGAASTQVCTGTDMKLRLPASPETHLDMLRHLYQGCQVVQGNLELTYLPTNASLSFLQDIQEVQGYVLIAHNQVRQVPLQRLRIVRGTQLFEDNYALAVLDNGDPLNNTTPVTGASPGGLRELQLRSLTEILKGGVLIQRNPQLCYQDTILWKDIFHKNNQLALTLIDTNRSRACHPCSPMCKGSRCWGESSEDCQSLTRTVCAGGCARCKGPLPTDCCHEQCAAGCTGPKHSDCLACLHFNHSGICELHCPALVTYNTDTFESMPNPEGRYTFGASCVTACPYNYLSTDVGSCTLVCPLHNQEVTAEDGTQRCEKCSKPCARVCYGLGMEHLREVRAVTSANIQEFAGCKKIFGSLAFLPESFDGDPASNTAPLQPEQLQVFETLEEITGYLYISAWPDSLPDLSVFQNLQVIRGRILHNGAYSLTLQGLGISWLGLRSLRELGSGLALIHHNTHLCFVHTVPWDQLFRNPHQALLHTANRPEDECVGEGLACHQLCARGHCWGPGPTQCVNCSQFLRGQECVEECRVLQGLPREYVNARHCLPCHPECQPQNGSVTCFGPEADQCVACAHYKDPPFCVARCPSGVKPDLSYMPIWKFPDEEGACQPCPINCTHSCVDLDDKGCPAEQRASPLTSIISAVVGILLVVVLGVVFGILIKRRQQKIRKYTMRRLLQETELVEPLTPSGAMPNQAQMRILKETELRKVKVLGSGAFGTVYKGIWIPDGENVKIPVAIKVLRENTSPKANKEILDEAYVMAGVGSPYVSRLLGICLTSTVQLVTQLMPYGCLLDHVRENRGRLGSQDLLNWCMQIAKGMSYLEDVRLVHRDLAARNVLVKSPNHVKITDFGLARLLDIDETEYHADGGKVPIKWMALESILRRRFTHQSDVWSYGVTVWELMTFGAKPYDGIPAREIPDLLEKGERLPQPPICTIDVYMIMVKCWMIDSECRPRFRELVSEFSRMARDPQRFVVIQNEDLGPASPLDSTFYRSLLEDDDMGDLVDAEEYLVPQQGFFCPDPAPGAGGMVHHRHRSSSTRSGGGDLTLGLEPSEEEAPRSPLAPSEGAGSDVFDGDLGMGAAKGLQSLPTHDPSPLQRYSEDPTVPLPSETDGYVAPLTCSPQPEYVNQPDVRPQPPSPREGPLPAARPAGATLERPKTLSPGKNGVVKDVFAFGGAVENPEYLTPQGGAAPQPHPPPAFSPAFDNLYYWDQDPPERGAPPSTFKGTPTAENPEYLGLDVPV
Sequence of SRSF protein kinase 1 (Homo sapiens) (Q96SB4 whole entry): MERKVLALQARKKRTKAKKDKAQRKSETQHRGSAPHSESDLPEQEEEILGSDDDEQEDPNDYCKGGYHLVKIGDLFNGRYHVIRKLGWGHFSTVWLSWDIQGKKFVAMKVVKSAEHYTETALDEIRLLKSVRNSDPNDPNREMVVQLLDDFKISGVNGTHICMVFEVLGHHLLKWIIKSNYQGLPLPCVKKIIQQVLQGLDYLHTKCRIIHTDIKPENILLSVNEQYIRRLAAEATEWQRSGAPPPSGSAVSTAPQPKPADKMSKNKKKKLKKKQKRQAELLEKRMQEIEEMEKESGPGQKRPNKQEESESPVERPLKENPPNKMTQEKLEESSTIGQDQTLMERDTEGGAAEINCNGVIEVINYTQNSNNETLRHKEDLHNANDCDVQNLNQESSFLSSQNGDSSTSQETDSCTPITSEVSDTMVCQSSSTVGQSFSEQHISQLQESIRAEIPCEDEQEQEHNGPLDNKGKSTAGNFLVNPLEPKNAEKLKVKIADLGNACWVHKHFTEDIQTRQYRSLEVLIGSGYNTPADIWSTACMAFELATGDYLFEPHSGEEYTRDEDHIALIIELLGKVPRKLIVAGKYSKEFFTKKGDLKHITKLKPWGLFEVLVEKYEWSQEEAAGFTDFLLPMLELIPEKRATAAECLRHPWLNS
Sequence of Hepatocyte growth factor receptor (P08581 whole entry): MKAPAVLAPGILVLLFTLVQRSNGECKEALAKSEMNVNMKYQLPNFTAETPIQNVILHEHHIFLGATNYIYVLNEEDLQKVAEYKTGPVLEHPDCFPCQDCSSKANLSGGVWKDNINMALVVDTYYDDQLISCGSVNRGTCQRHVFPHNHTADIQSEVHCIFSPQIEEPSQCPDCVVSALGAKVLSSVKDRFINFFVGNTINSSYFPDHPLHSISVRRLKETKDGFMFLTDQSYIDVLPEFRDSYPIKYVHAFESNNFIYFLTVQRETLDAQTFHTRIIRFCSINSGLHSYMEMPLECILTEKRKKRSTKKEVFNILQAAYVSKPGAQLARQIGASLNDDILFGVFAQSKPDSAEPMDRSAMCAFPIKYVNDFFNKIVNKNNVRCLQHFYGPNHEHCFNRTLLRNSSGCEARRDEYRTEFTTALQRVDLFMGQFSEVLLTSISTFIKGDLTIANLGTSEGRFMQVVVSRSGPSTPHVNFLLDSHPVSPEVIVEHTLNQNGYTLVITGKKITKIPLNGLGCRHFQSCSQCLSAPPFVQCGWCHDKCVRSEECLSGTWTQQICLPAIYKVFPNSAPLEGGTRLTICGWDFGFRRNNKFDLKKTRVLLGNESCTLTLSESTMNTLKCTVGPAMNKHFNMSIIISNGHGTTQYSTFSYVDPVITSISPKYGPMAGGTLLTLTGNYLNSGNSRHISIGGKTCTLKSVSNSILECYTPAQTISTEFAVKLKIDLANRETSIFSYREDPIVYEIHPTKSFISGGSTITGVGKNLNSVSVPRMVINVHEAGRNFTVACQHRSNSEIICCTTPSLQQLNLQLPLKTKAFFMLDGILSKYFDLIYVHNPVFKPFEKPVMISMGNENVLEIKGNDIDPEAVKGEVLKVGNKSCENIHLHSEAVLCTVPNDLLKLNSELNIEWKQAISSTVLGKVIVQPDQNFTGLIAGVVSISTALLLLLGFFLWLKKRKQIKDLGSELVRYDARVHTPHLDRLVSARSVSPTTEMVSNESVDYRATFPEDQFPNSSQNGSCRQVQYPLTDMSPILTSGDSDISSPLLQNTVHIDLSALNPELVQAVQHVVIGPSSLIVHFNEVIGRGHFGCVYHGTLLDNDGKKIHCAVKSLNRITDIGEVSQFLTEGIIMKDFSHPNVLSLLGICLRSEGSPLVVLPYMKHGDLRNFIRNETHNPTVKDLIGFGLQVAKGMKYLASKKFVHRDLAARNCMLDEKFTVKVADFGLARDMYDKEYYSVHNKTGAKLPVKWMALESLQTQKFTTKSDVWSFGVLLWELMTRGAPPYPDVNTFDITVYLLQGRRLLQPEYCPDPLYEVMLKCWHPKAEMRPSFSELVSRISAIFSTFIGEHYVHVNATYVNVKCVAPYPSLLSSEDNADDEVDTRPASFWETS
Sequence of Serine/threonine-protein kinase TAO3 (Homo sapiens) (Q9H2K8 whole entry): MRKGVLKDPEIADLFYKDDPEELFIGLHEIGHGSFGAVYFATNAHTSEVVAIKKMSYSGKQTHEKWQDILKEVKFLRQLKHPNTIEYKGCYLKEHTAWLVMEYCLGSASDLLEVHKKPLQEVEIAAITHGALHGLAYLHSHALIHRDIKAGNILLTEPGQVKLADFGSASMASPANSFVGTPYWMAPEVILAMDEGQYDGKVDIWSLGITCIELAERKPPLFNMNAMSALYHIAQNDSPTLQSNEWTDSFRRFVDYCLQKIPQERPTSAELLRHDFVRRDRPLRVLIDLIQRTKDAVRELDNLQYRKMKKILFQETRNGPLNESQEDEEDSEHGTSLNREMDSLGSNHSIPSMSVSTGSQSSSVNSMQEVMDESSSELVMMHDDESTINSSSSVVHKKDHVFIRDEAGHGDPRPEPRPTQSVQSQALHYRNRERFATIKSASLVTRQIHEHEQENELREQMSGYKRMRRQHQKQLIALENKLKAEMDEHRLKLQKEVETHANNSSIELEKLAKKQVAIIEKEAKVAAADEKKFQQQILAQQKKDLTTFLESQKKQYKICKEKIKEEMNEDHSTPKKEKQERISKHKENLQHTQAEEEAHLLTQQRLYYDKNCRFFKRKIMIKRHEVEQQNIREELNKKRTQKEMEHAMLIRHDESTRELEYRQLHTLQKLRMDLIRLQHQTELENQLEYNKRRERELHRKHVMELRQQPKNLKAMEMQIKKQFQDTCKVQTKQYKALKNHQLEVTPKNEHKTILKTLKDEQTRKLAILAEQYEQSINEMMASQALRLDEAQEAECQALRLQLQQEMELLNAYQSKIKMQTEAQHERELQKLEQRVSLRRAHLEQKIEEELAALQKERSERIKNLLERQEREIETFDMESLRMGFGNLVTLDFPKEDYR
Sequence of MAP kinase-interacting serine/threonine-protein kinase 1 (Q9BUB5 whole entry T385D): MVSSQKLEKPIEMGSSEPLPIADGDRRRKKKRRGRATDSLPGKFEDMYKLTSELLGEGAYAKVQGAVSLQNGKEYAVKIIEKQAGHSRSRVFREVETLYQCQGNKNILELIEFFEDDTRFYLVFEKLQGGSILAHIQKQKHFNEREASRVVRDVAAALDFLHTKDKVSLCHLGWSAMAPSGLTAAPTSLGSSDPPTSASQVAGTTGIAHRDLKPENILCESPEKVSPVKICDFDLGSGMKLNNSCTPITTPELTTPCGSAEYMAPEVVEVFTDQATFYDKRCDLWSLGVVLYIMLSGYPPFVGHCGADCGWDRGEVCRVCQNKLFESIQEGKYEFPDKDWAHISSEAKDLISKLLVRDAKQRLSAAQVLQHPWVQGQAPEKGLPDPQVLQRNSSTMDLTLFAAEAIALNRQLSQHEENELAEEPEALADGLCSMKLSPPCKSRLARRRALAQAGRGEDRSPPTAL
Sequence of Serine/threonine-protein kinase STK11 (Homo sapiens) (Q15831 whole entry): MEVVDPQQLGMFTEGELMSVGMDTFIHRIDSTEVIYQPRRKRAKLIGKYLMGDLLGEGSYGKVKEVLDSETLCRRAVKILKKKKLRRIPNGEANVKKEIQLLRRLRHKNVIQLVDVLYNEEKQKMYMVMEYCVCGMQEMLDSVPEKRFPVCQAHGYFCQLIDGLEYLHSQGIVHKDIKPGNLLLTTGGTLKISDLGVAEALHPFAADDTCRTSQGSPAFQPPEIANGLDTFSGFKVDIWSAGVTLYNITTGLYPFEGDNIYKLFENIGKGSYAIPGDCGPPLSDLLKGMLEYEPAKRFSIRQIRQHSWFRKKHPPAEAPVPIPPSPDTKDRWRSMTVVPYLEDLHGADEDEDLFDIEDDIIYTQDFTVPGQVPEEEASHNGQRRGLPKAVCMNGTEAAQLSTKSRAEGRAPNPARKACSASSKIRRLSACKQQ

## COc1cc(N2CCC(N3CCN(C)CC3)CC2)ccc1Nc1ncc(Cl)c(Nc2ccccc2P(C)(C)=O)n1 [BRIGATINIB]
[1]
  IC50: 88 nM
[2]
  IC50: 674 nM
BaF3 [3]
  TGI: 88%
[4]
  inhibition: < 90%
[5]
  IC50: 895 nM
[6]
  inhibition: < 90%
[7]
  inhibition: < 90%
[8]
  inhibition: Active
[9]
  inhibition: < 90%
NCI-H3122
  inhibition: Active
[10]
  inhibition: < 90%
[11]
  IC50: 42 nM
[12]
  inhibition: < 90%
[13]
  inhibition: inactive
BaF3 [14]
  inhibition: Active
[15]
  inhibition: < 90%
KARPAS-299 [16]
  inhibition: Active
[17]
  inhibition: < 90%
[18]
  IC90: 416 nM
[19]
  inhibition: < 90%
Mus musculus
  Activity: Active
[20]
  inhibition: < 90%
[21]
  inhibition: Active
[22]
  IC50: 6.5 nM
[23]
  inhibition: < 90%
[24]
  inhibition: Active
KARPAS-299 [25]
  Activity: ~100%
[26]
  inhibition: inactive
[27]
  inhibition: < 90%
Homo sapiens
  inhibition: < 90%

Reference: ChEMBL document CHEMBL5696443 (Clin Cancer Res, 2016)
